26 compounds from PubChem BioAssay (NCI) can be followed below.

Molecules are shown by their SMILES. Where “and” joins values, the source holds several entries; their conditions need not be identical. Equal entries are not always repeated.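 Results reflect a 48-hour exposure of cells in 96-well plates to compound at five concentrations. GI50 = concentration required for 50% inhibition of growth. TGI: concentration producing complete growth inhibition.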 Where only a bound is given, the exact number is not on record here.

Common to all, as to test: NCI anticancer screen, dose series, 48 h
In experiment [1] the test system is EKVX NSCLC.
Experiment [2] concerns HCC-2998 colon.
Experiment [3] has as its system MDA-MB-435.
Experiment [4] has as its system NCI-H226 lung.
Experiment [5] has as its system PC-3 prostate.
For experiment [6], the system named is RPMI-8226 leukemia.
The test system of experiment [7] is SF-268 CNS.
For experiment [8], the system named is SK-MEL-5 melanoma.
For experiment [9], the system named is SN12C renal.
In experiment [10] the test system is SR leukemia.

With `O=C(N/N=C\c1ccc(Cl)cc1)Nc1ccc2ccccc2c1`, the TGI in experiment [1], in experiment [2], in [3], in [4], in experiment [5] and in [6] was greater than 100 µM each time. For the same compound, the TGI is 71.3 µM in [7], greater than 100 µM in experiment [8], greater than 100 µM in experiment [9] and greater than 100 µM in [10].
`Cc1ccc([N+](=O)[O-])cc1S(=O)(=O)Nc1ccc(C2=NN(S(=O)(=O)c3cc([N+](=O)[O-])ccc3C)C(c3cccs3)C2)cc1` (stereo not given): the TGI in experiment [1] was greater than 100 µM; in experiment [2], 56.6 µM; in [3], greater than 100 µM; in experiment [4] it was greater than 100 µM; in [5] it was greater than 100 µM; in [6] it was 67.6 µM. For the same compound, the TGI in experiment [7] is 75 µM; in experiment [8], greater than 100 µM; in [9], greater than 100 µM; in [10], 66.1 µM.
Regarding `O=C(Nc1ccccc1C(=O)NCc1ccccc1)/C(=C/c1ccccc1O)NC(=O)c1ccccc1`, the TGI in [1], in experiment [2], in experiment [3], in experiment [4], in [5] and in experiment [6] was greater than 100 µM throughout. In addition, the TGI in experiment [7], in [8], in experiment [9] and in [10] was greater than 100 µM throughout.
As for `CN(C)N1C(=O)C(=O)N(c2cccc3ccccc23)C1=O`, the TGI in experiment [1], in experiment [2], in [3], in experiment [4], in experiment [5] and in experiment [6] was greater than 10 µM in each case. Besides, the TGI in [7], in experiment [8], in experiment [9] and in [10] was greater than 10 µM throughout.
With `COC(=O)C1(Cc2ccc3c(c2)CCC3)Cc2ccc3c(c2C1=O)CCC3` (stereo not given), the TGI in experiment [1] is greater than 100 µM; in [2], 44.5 µM; in experiment [3], 6.13 µM; in experiment [4], greater than 87.2 µM; in experiment [5] it was greater than 95.2 µM; in experiment [6] it was 52.7 µM. Besides, the TGI in experiment [7] was greater than 100 µM; in [8] it was 28.2 µM; in experiment [9] it was greater than 100 µM; in [10], 7.76 µM.
As to `CCC1c2[nH]c3ccccc3c2C[C@H]2C(=O)NC(C)C(=O)N12` (stereo not given in full), the TGI in [1], in experiment [2], in experiment [3], in experiment [4], in experiment [5] and in experiment [6] was greater than 100 µM in each case. The TGI in [7], in experiment [8], in [9] and in [10] was greater than 100 µM each time.
For `CCOP(=O)(OCC)C(c1ccc(F)cc1)N(C(=O)NC(F)(F)F)c1ccc(F)cc1` (stereo not given), the TGI in [1], in [2], in experiment [3], in [4], in [5] and in experiment [6] was greater than 100 µM in each case. Besides, the TGI in [7], in experiment [8], in [9] and in experiment [10] was greater than 100 µM each time.
With `O=C1/C(=C/c2cccc([N+](=O)[O-])c2)N=C(c2ccccc2)N1c1nc2ccc(Sc3ccccc3)cc2[nH]1`, the TGI in experiment [1] was greater than 100 µM; in [2], greater than 100 µM; in [3], 37 µM; in experiment [4], greater than 100 µM; in experiment [5], greater than 100 µM; in [6], greater than 100 µM. In addition, the TGI in [7], in [8], in experiment [9] and in experiment [10] was greater than 100 µM each time.
As to `COC(=O)[C@@]12CSC[C@]1(C(=O)OC)N[C@@H](c1ccccc1O)C2`, the TGI in experiment [1], in experiment [2], in [3], in experiment [4], in experiment [5] and in experiment [6] was greater than 100 µM throughout. Moreover, the TGI in experiment [7], in [8], in [9] and in experiment [10] was greater than 100 µM in each case.
`O=c1cc(NNc2ccccc2)[nH]c(=O)[nH]1`: the TGI is greater than 100 µM in experiment [1]; 39.9 µM in experiment [2]; 33.7 µM in experiment [3]; 36 µM in experiment [4]; 36.3 µM in experiment [5]; 59.9 µM in experiment [6]. Further, the TGI in [7] was 99.6 µM; in experiment [8] it was greater than 100 µM; in [9], 49.4 µM; in experiment [10], 84.6 µM.
Consider `N=c1oc2ccc3ccccc3c2cc1-c1nc2ccccc2c(=O)[nH]1`, for which the TGI in experiment [1], in experiment [2], in experiment [3], in experiment [4], in experiment [5] and in [6] was greater than 100 µM in each case. The TGI in [7], in experiment [8], in experiment [9] and in experiment [10] was greater than 100 µM each time.
Regarding `O=C(CCCc1cccc2[nH]c3c(c12)CN(Cc1ccccc1)CC3)c1ccc(F)cc1`, the TGI is greater than 100 µM in experiment [1]; 38.5 µM in [2]; greater than 100 µM in experiment [3]; greater than 100 µM in [4]; greater than 100 µM in [5]; greater than 95.1 µM in experiment [6]. For the same compound, the TGI in experiment [7] is greater than 100 µM; in experiment [8], 45.8 µM; in experiment [9], greater than 100 µM; in experiment [10] it was greater than 100 µM.
Take `COc1ccc2[nH]c3ccc4cc[n+](CCN5CCC(C6CCN(CC[n+]7ccc8ccc9[nH]c%10ccc(OC)cc%10c9c8c7)CC6)CC5)cc4c3c2c1`: the GI50 in [1] is 3.19 µM; in [6] it was 0.367 µM and 0.443 µM; in [8], 6.7 µM; in experiment [9], 8.76 µM. Moreover, the TGI in experiment [1] was > 50 µM and 63.1 µM; in experiment [2], 14.2 µM and > 100 µM; in [3] it was greater than 50 µM; in [4], 50 µM; in experiment [5], 50 µM; in experiment [7], 50 µM and > 56.9 µM. For the same compound, the TGI is 41.3 µM and 60.7 µM in experiment [8]; 50 µM in experiment [9]; 50 µM in experiment [10].
Consider `ClCCCN1CCN(CCCl)CC1`, for which the TGI in experiment [1] was 873 µM; in [2] it was 997 µM; in experiment [3] it was greater than 930 µM; in experiment [4] it was 879 µM; in experiment [5] it was greater than 1000 µM; in [6], 743 µM. In addition, the TGI in experiment [7] was greater than 892 µM; in experiment [8], 647 µM; in [9] it was 626 µM. The GI50 was 38.6 µM in [7], 8.8 µM in experiment [9] and 3.44 µM in experiment [10].
As to `Cc1cccc2c(=O)c3cccc([C@H](C)C(=O)O)c3oc12`, the TGI in experiment [1], in [2], in [3], in experiment [4], in experiment [5] and in experiment [6] was greater than 100 µM in each case. In addition, the TGI in experiment [7], in [8], in [9] and in experiment [10] was greater than 100 µM each time.
As for `CCOC(CBr)OC1C(=O)OCC1(C)C` (stereo not given), the TGI in [1], in experiment [2], in experiment [3], in experiment [4], in experiment [5] and in experiment [6] was greater than 100 µM in each case. In addition, the TGI in experiment [7], in experiment [8], in experiment [9] and in experiment [10] was greater than 100 µM each time.
For `COc1cc(C[C@@]2(C)[C@@H]3CCC[C@H](CO)[C@@]3(C)CC[C@@H]2C)c(Cl)c(OC)c1`, the TGI in [1] turned out to be 27.5 µM; in [2], 29.8 µM; in [3], 27.1 µM; in experiment [4] it was 32.5 µM; in experiment [5] it was 27.2 µM; in experiment [6] it was 76.2 µM. The TGI in [7] was determined as 30.8 µM; in experiment [8] it was 31.8 µM; in experiment [9], 30 µM; in experiment [10], 48.5 µM.
For `O=C(O)c1ccc2c(O)c(O)ccc2c1`, the TGI in experiment [1] is 47.7 µM; in experiment [2] it was greater than 60.9 µM; in [3], 34.7 µM; in experiment [4], 44.3 µM; in [5], greater than 78.8 µM; in experiment [6] it was 40.2 µM. The TGI is 22.3 µM in [7], 35.6 µM in [8], 27.7 µM in experiment [9] and 13.8 µM in experiment [10].
Regarding `CS(=O)(=O)OCCN(CCOS(C)(=O)=O)c1ccc(C=Nc2ccc(-c3csc(Cc4ccccc4)n3)cc2)c(Cl)c1`, the TGI in experiment [1] was greater than 100 µM; in experiment [2] it was 35.1 µM; in experiment [3] it was greater than 78.2 µM; in experiment [4], 1.79 µM; in [5] it was greater than 79.8 µM; in experiment [6], greater than 100 µM. The TGI in experiment [7] was greater than 100 µM; in experiment [8], 40.2 µM; in experiment [9] it was greater than 100 µM; in experiment [10] it was 74.3 µM.
Turning to `CCC1(O)C(=O)OCc2c1cc1n(c2=O)Cc2cc3cc4c(cc3nc2-1)OCO4` (stereo not given), the TGI was 4.27 µM in [1]; 0.396 µM in [2]; 9.1 µM in [3]; 0.0252 µM in [4]; greater than 100 µM in experiment [5]; 7 µM in experiment [6]. Further, the TGI was 0.761 µM in experiment [7], 0.02 µM in experiment [8], 4.1 µM in experiment [9] and 3.79 µM in experiment [10].
For the compound `COc1ccc(-c2c(C#N)c(N)[nH]c(=S)c2C#N)cc1`, the TGI in [1] is greater than 100 µM; in [2], 72.2 µM; in [3], 95.5 µM; in experiment [4], greater than 100 µM; in experiment [5] it was greater than 100 µM; in experiment [6] it was 74.2 µM. The TGI was greater than 100 µM in experiment [7], greater than 100 µM in experiment [8], 84.3 µM in experiment [9] and greater than 100 µM in experiment [10].
As for `COc1cc(/C=C/C(=O)CC(=O)/C=C/c2cc(C)c(O)c(OC)c2)cc(C)c1O`, the TGI in experiment [1], in experiment [2], in [3], in [4], in experiment [5] and in experiment [6] was greater than 100 µM in each case. Further, the TGI in experiment [7], in experiment [8], in experiment [9] and in [10] was greater than 100 µM in each case.
On to `NCCCn1c(Cl)nc2ccccc21`, for which the TGI in experiment [1], in experiment [2], in [3], in experiment [4], in [5] and in experiment [6] was greater than 100 µM in each case. The TGI in experiment [7], in experiment [8], in experiment [9] and in experiment [10] was greater than 100 µM each time.
For `COc1cc2ncnc(NS(=O)(=O)c3cc4ccccc4s3)c2cc1OC`, the TGI in experiment [1], in experiment [2], in experiment [3], in experiment [4], in [5] and in [6] was greater than 100 µM in each case. For the same compound, the TGI in experiment [7], in [8], in [9] and in experiment [10] was greater than 100 µM throughout.
Take `Nc1cc(C2CCCc3c2[nH]c2ccccc32)ccc1O` (stereo not given): the TGI is greater than 100 µM in experiment [1]; greater than 100 µM in experiment [2]; 33.2 µM in experiment [3]; greater than 100 µM in experiment [4]; greater than 100 µM in experiment [5]; 54.9 µM in [6]. Further, the TGI in [7], in experiment [8], in experiment [9] and in experiment [10] was greater than 100 µM throughout.
With `CN1C/C(=C\c2cccs2)C2=NN(c3ccccc3)C(c3cccs3)C2C1` (stereo not given), the TGI in [1] was greater than 100 µM; in [2], greater than 100 µM; in [3], 3.86 µM; in [4], greater than 100 µM; in [5], greater than 100 µM; in experiment [6] it was greater than 100 µM. For the same compound, the TGI in experiment [7] is greater than 40.6 µM; in experiment [8], greater than 100 µM; in experiment [9], greater than 100 µM; in [10], greater than 100 µM.
